Nine molecules from patent publication US10212936B2, “Molecules having pesticidal utility, and intermediates, compositions, and processes, related thereto” (priority 2014, dated 2019) can be followed below.

Common to all, as to format: in vivo
The test system of data set [1] is Beet Armyworm (Spodoptera exigua, LAPHEG). In words: Bioassay on Beet Armyworm (BAW), 128-well diet tray assay. The settings on record: 168 h, 50 μg/cm^2 on artificial diet, second instar larvae, five to seven days, 25° C., read-out: BAW % Control (or Mortality) rating. A digest of the protocol:
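Second instar larvae, one to five per well, placed on artificial diet treated with 50 μg/cm^2 compound (in 90:10 acetone-water) and dried; eight wells per compound. Held at 25° C, 14:10 light-dark, five to seven days. Percent mortality recorded per well and averaged.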

In data set [2] the test system is Green Peach Aphid (Myzus persicae, MYZUPE). In words: Bioassay on Green Peach Aphid (GPA), foliar spray on cabbage seedlings. The settings on record: 72 h, 200 ppm foliar spray on cabbage seedlings, three days, Abbott corrected % control, read-out: GPA % Control (or Mortality) rating. How it is done:
Example B: Bioassays on Green Peach Aphid (Myzus persicae, MYZUPE) (“GPA”)
Certain molecules disclosed in this document were tested against GPA using procedures described in the following example. In the reporting of the results, the “GPA Rating Table” was used (See Table Section).
Cabbage seedlings grown in 3-inch pots, with 2-3 small (3-5 cm) true leaves, were used as test substrate. The seedlings were infested with 20-50 GPA (wingless adult and nymph stages) one day prior to chemical application. Four pots with individual seedlings were used for each treatment. Test molecules (2 mg) were dissolved in 2 mL of acetone/methanol (1:1) solvent, forming stock solutions of 1000 ppm test molecule. The stock solutions were diluted 5× with 0.025% Tween 20 in water to obtain the solution at 200 ppm test molecule. A hand-held aspirator-type sprayer was used for spraying a solution to both sides of […] leaves until runoff. Reference plants (solvent check) were sprayed with the diluent only containing 20% by volume of acetone/methanol (1:1) solvent. Treated plants were held in a holding room for three days at approximately 25° C. and ambient relative humidity (RH) prior to grading. Evaluation was conducted by counting the number of live aphids per plant under a microscope. Percent Control was measured by using Abbott's correction formula (W. S. Abbott, “A Method of Computing the Effectiveness of an Insecticide” J. Econ. Entomol. 18 (1925), pp. 265-267) as follows. Corrected % Control=100*(X−Y)/X • where • X=No. of live aphids on solvent check plants and • Y=No. of live aphids on treated plants
The results are indicated in the table entitled “Table ABC: Biological Results” (See Table Section).

In data set [3] the test system is Cabbage Looper (Trichoplusia ni, TRIPNI). In words: Bioassay on Cabbage Looper (CL), 128-well diet tray assay. The settings on record: 168 h, 50 μg/cm^2 on artificial diet, second instar larvae, five to seven days, 25° C., read-out: CL % Control (or Mortality) rating. A digest of the protocol:
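Diet-tray test with one to five second-instar larvae per well on artificial diet treated with 50 μg/cm^2 compound (in 90:10 acetone-water), dried, eight wells per molecule. Held 25 °C, 14:10 light-dark for five to seven days; percent mortality averaged over the eight wells.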

Data set [4] concerns Yellow Fever Mosquito (Aedes aegypti, AEDSAE). In words: Bioassay on Yellow Fever Mosquito (YFM) larvae, 96-well plate. The settings on record: about 1 day-old larvae, 4000 ppm DMSO master plate diluted, graded after 3 days. A digest of the protocol: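 Compounds from 4000 ppm DMSO master stocks, diluted in 90:10 water:acetone, dispensed into wells and infested with about 1-day-old Aedes aegypti larvae in liver-powder water. Six replicate plates, covered and held at room temperature for 3 days, then each well scored for mortality.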

As a reminder, the mortality is the percentage killed. As to `Cc1cc(Cl)ccc1-n1nccc1NC(=O)Nc1ccc(-c2ncn(-c3ccc(OC(F)(F)F)cc3)n2)cc1` [F3, 1-(1-(4-Chloro-2-methylphenyl)-1H-pyrazol-5-yl)-3-(4-(1-(4-(trifluoromethoxy)phenyl)-1H-1,2,4-triazol-3-yl)phenyl)urea], the mortality at 50 µg/cm2 in data set [1] and in data set [3] was 50 to 100% in each case. The mortality at 200 ppm in data set [2] is 0%. The “YFM % Control (or Mortality) rating” value in data set [4] is given as “A (80-100)”.

For the molecule `O=C(Nc1ccc(-c2ncn(-c3ccc(OC(F)(F)F)cc3)n2)cc1)Nc1ccnn1-c1cc(Cl)ccc1Cl` [F12, 1-(1-(2,5-Dichlorophenyl)-1H-pyrazol-5-yl)-3-(4-(1-(4-(trifluoromethoxy)phenyl)-1H-1,2,4-triazol-3-yl)phenyl)urea], the mortality at 50 µg/cm2 in data set [1] and in data set [3] was 50 to 100% in each case. The mortality at 200 ppm in data set [2] was in the range of 0 to 80%. Also, the “YFM % Control (or Mortality) rating” value in data set [4] is listed as “A (80-100)”.

Turning to `CCc1ccccc1-n1nccc1NC(=O)Nc1ccc(-c2ncn(-c3ccc(OC(F)(F)F)cc3)n2)cc1` [F6, 1-(1-(2-Ethylphenyl)-1H-pyrazol-5-yl)-3-(4-(1-(4-(trifluoromethoxy)phenyl)-1H-1,2,4-triazol-3-yl)phenyl)urea], the mortality at 50 µg/cm2 in data set [1] and in data set [3] was 50 to 100% throughout. Besides, in data set [2], the mortality at 200 ppm amounted to 0%. Besides, the “YFM % Control (or Mortality) rating” value in data set [4] is “A (80-100)”.

Turning to `Cc1cc(C)c(-n2nccc2NC(=O)Nc2ccc(-c3ncn(-c4ccc(OC(F)(F)F)cc4)n3)cc2)c(C)c1` [F11, 1-(1-Mesityl-1H-pyrazol-5-yl)-3-(4-(1-(4-(trifluoromethoxy)phenyl)-1H-1,2,4-triazol-3-yl)phenyl)urea], the mortality at 50 µg/cm2 in data set [1] and in data set [3] was 50 to 100% in each case. Moreover, the mortality at 200 ppm in data set [2] was determined as 0%. In addition, the “YFM % Control (or Mortality) rating” value in data set [4] is listed as “A (80-100)”.

Take `O=C(Nc1ccc(-c2ncn(-c3ccc(OC(F)(F)F)cc3)n2)cc1)Nc1ccnn1-c1c(Cl)cccc1Cl` [F4, 1-(1-(2,6-Dichlorophenyl)-1H-pyrazol-5-yl)-3-(4-(1-(4-(trifluoromethoxy)phenyl)-1H-1,2,4-triazol-3-yl)phenyl)urea]: the mortality at 50 µg/cm2 in data set [1] and in data set [3] was 50 to 100% in each case. Also, the mortality at 200 ppm in data set [2] was in the range of 0 to 80%. In data set [4], the “YFM % Control (or Mortality) rating” value was “A (80-100)”.

In the case of `Cc1ccc(F)cc1-n1nccc1NC(=O)Nc1ccc(-c2ncn(-c3ccc(OC(F)(F)C(F)(F)F)cc3)n2)cc1` [F16, 1-(1-(5-Fluoro-2-methylphenyl)-1H-pyrazol-5-yl)-3-(4-(1-(4-(perfluoroethoxy)phenyl)-1H-1,2,4-triazol-3-yl)phenyl)urea], the mortality at 50 µg/cm2 in data set [1] and in data set [3] was 50 to 100% throughout. Moreover, the mortality at 200 ppm in data set [2] came to 0%. The “YFM % Control (or Mortality) rating” value in data set [4] is given as “A (80-100)”.

For the molecule `Cc1ccc(C)c(-n2nccc2NC(=O)Nc2ccc(-c3ncn(-c4ccc(OC(F)(F)F)cc4)n3)cc2)c1` [F7, 1-(1-(2,5-Dimethylphenyl)-1H-pyrazol-5-yl)-3-(4-(1-(4-(trifluoromethoxy)phenyl)-1H-1,2,4-triazol-3-yl)phenyl)urea], the mortality at 50 µg/cm2 in data set [1] and in data set [3] was 50 to 100% in each case. For the same molecule, the mortality at 200 ppm in data set [2] was 0 to 80%. Also, the “YFM % Control (or Mortality) rating” value in data set [4] is on record as “A (80-100)”.

On to `COc1ccccc1-n1nccc1NC(=O)Nc1ccc(-c2ncn(-c3ccc(OC(F)(F)C(F)(F)F)cc3)n2)cc1` [F19, 1-(1-(2-Methoxyphenyl)-1H-pyrazol-5-yl)-3-(4-(1-(4-(perfluoroethoxy)phenyl)-1H-1,2,4-triazol-3-yl)phenyl)urea], for which the mortality at 50 µg/cm2 in data set [1] and in data set [3] was 50 to 100% throughout. Besides, the mortality at 200 ppm in data set [2] lay within 0 to 80%. Also, the “YFM % Control (or Mortality) rating” value in data set [4] is recorded as “A (80-100)”.

As for `Cc1cc(C)c(-n2nccc2NC(=O)Nc2ccc(-c3ncn(-c4ccc(OC(F)(F)C(F)(F)F)cc4)n3)cc2)c(C)c1` [F18, 1-(1-Mesityl-1H-pyrazol-5-yl)-3-(4-(1-(4-(perfluoroethoxy)phenyl)-1H-1,2,4-triazol-3-yl)phenyl)urea], the mortality at 50 µg/cm2 in data set [1] and in data set [3] was 50 to 100% in each case. Further, the mortality at 200 ppm in data set [2] fell in the range of 0 to 80%. In addition, in data set [4], the “YFM % Control (or Mortality) rating” value was “A (80-100)”.
